Laboratory results published in patent US8987195B2 (priority 2012, dated 2015).
pEC50: −log10 of the molar value. Where two headings read alike, the source gives them in different places.

Columns and labels:
[1] = tested on: HCV genotype 1b replicon; test: HCV replicon assay, genotype 1b replicon EC50; assay type: cell-based, Hepatitis C virus; settings: Hepatitis C virus, genotype 1b replicon, read-out: EC50 [gt-1b]
In short: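 Stable neomycin phosphotransferase-encoding replicon cell lines, kept under G418 selection beforehand, were plated with a compound dilution series without G418 and incubated 24-48 hours. Replicon RNA was then quantified, or luciferase activity read. EC50 was calculated as percent of DMSO control by four-parameter fit.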

[2] = target: HCV NS3/4A protease genotype 1b (Hepatitis C virus genotype 1b, UniProt P26663); test: HCV NS3/4A protease time-resolved fluorescence (TRF) assay, Ki against genotype 1b; assay type: biochemical; settings: IC50 [gt-1b] (nM), NS3/4A genotype 1b, enzyme 0.2 nM
In short: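 Enzyme was pre-incubated 30 min with inhibitor in HEPES pH 7.5 buffer (150 mM NaCl, 15% glycerol, 10 mM DTT). Reaction ran 2.5 h at room temperature with 25 nM europium TRF peptide substrate, read at ex 340/em 615 nm. Enzyme levels: 0.2 nM (1b), 0.4 nM (A156T), 0.025 nM (3a). Ki came from four-parameter IC50 via IC50=Ki(1+[S]/KM).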

| Structure (SMILES) | pEC50 ([1]; K+ salt) | IC50 ([2]; K+ salt) [nM] | pEC50 [1] | IC50 [2] [nM] |
| --- | --- | --- | --- | --- |
| COc1ccc2nc(C3CC3)c3c(c2c1)C(F)(F)C[C@]1(C[C@H]2C(=O)N[C@]4(C(=O)NS(=O)(=O)C5(C)CC5)C[C@H]4/C=C\CCCCC[C@H](NC(=O)O[C@H](C)C(C)C)C(=O)N2C1)O3 [Example 249, (2R)-3-methylbutan-2-yl [(2S,6S,12Z,13aS,14aR,16aS)-5′-cyclopropyl-1′,1′-difluoro-9′-methoxy-14a-{[(1-methylcyclopropyl)sulfonyl]carbamoyl}-5,16-dioxo-1,1′,2′,5,6,7,8,9,10,11,13a,14,14a,15,16,16a-hexadecahydrospiro[cyclopropa[e]pyrrolo[1,2-a][1,4]diazacyclopentadecine-2,3′-pyrano[2,3-c]quinolin]-6-yl]carbamate] | 7.84 | 0.02 | – | – |
| COc1ccc2nc(C3CC3)c3c(c2c1)C(F)(F)C[C@]1(C[C@H]2C(=O)N[C@]4(C(=O)NS(=O)(=O)C5(C)CC5)C[C@H]4/C=C\CCCCC[C@H](NC(=O)O[C@@H](C)C(C)C)C(=O)N2C1)O3 [Example 250, (2S)-3-methylbutan-2-yl [(2S,6S,12Z,13aS,14aR,16aS)-5′-cyclopropyl-1′,1′-difluoro-9′-methoxy-14a-{[(1-methylcyclopropyl)sulfonyl]carbamoyl}-5,16-dioxo-1,1′,2′,5,6,7,8,9,10,11,13a,14,14a,15,16,16a-hexadecahydrospiro[cyclopropa[e]pyrrolo[1,2-a][1,4]diazacyclopentadecine-2,3′-pyrano[2,3-c]quinolin]-6-yl]carbamate] | – | – | 8.19 | 0.024 |
| Cc1nc2ccc(C(F)(F)F)cc2c2c1O[C@]1(CC2)C[C@H]2C(=O)N[C@]3(C(=O)NS(=O)(=O)C4(C)CC4)C[C@H]3/C=C\CCCCC[C@H](NC(=O)OC(C)(C)C)C(=O)N2C1 [Example 251, tert-butyl [(2R,6S,12Z,13aS,14aR,16aS)-5′-methyl-14a-{[(1-methylcyclopropyl)sulfonyl]carbamoyl}-5,16-dioxo-9′-(trifluoromethyl)-1,1′,2′,5,6,7,8,9,10,11,13a,14,14a,15,16,16a-hexadecahydrospiro[cyclopropa[e]pyrrolo[1,2-a][1,4]diazacyclopentadecine-2,3′-pyrano[2,3-c]quinolin]-6-yl]carbamate] | – | – | 7.84 | 0.021 |
| Cc1nc2ccc(C(F)(F)F)cc2c2c1O[C@]1(CC2)C[C@H]2C(=O)N[C@]3(C(=O)NS(=O)(=O)C4(C)CC4)C[C@H]3/C=C\CCCCC[C@H](NC(=O)OC3CCCC3)C(=O)N2C1 [Example 252, cyclopentyl [(2R,6S,12Z,13aS,14aR,16aS)-5′-methyl-14a-{[(1-methylcyclopropyl)sulfonyl]carbamoyl}-5,16-dioxo-9′-(trifluoromethyl)-1,1′,2′,5,6,7,8,9,10,11,13a,14,14a,15,16,16a-hexadecahydrospiro[cyclopropa[e]pyrrolo[1,2-a][1,4]diazacyclopentadecine-2,3′-pyrano[2,3-c]quinolin]-6-yl]carbamate] | – | – | 7.35 | 0.01 |
| COc1ccc2nc(C)c3c(c2c1)CC[C@]1(C[C@H]2C(=O)N[C@]4(C(=O)NS(=O)(=O)C5(C)CC5)C[C@H]4/C=C\CCCCC[C@H](NC(=O)OC(C)(C)C(F)(F)F)C(=O)N2C1)O3 [Example 254, 1,1,1-trifluoro-2-methylpropan-2-yl [(2R,6S,12Z,13aS,14aR,16aS)-9′-methoxy-5′-methyl-14a-{[(1-methylcyclopropyl)sulfonyl]carbamoyl}-5,16-dioxo-1,1′,2′,5,6,7,8,9,10,11,13a,14,14a,15,16,16a-hexadecahydrospiro[cyclopropa[e]pyrrolo[1,2-a][1,4]diazacyclopentadecine-2,3′-pyrano[2,3-c]quinolin]-6-yl]carbamate] | 8.80 | 0.01 | – | – |
